Paper PMC4620497 (Scientific Reports, 2015)

Assays:
CSNK2A2 = target: T1, CSNK2A2 (Homo sapiens, UniProt P19784); assay: KINOMEscan panel screen; format: binding; conditions: read-out: Percent Control(%)
T1 construct: purchased DiscoveRx KINOMEscan (Ambit Biosciences)

CSF1R = target: T2, CSF1R (Homo sapiens, UniProt P07333); assay: KINOMEscan panel screen; format: binding; conditions: read-out: Percent Control(%)
T2 construct: purchased DiscoveRx KINOMEscan (Ambit Biosciences)

IRAK4 = target: T3, IRAK4 (Homo sapiens, UniProt Q9NWZ3); assay: KINOMEscan panel screen; format: binding; conditions: read-out: Percent Control(%)
T3 construct: purchased DiscoveRx KINOMEscan (Ambit Biosciences)

MLCK = target: T4, MLCK (Homo sapiens, UniProt Q32MK0); assay: KINOMEscan panel screen; format: binding; conditions: read-out: Percent Control(%)
T4 construct: purchased DiscoveRx KINOMEscan (Ambit Biosciences)

DYRK1A = target: T5, DYRK1A (Homo sapiens, UniProt Q13627); assay: KINOMEscan panel screen; format: binding; conditions: read-out: Percent Control(%)
T5 construct: purchased DiscoveRx KINOMEscan (Ambit Biosciences)

GAK = target: T6, GAK (Homo sapiens, UniProt O14976); assay: KINOMEscan panel screen; format: binding; conditions: read-out: Percent Control(%)
T6 construct: purchased DiscoveRx KINOMEscan (Ambit Biosciences)

[1] = test system: primary AML PBMCs SP cells; assay: Hoechst 33342 side population (SP) cell assay; format: cell-based, human; conditions: 5 μM, 48 h; vehicle 0.5%
Excerpt: (§1) Flow cytometry and Hoechst 33342 dye efflux assays were used to examine the possible influences of SKLB-677 on leukemia SP cells. This method is based on the findings that stem cells and early progenitors are able to pump out Hoechst via the ATP-Binding Cassette (ABC) transporters. This property allows the observation of a cell population (called side population) that has low Hoechst fluorescence in the blue and red regions of the spectrum. In this study, the Hoechst SP cell assays were performed with human AML MV4-11 and KG-1 cells, as well as primary AML PBMCs. […] As shown in Fig. 4a and Supplementary Fig. S6, MV4-11, KG-1, and primary AML PBMCs contained about 22.3%, 3.1%, and 0.5% SP cells, respectively.
(§2) Supplementary Mat eri al and Methods […]
(§3) Reactions were monitored by thin la yer chrom atograph y (TLC) on M erck silica gel 60 F-254 thin la yer plates. 1H NMR and 13C NMR spectra were recorded on a Bruker AV -400 spectrometer at 400 MHz and 100 MHz, respectivel y. […]
(§4) Lo w -resolution and high-resolution mass spectral (MS) data were determined on an Agilent 1100 Series LCMS with UV detection at 254nm in low -reson ance electrospray mode (ESI). All final compounds were purified to >95% purity, as determined b y hi gh- performance liquid chromatograph y (HP LC). […]

KG-1 SP cells = assay: Hoechst 33342 side population (SP) cell assay; format: cell-based, human; conditions: 5 μM, 48 h; vehicle 3.1%
Excerpt: as §1, §2, §3, §4

AMPK-alpha2 = target: T7, AMPK-alpha2 (Homo sapiens, UniProt P54646); assay: KINOMEscan panel screen; format: binding; conditions: read-out: Percent Control(%)
T7 construct: purchased DiscoveRx KINOMEscan (Ambit Biosciences)

PAK4 = target: T8, PAK4 (Homo sapiens, UniProt O96013); assay: KINOMEscan kinase binding assay (Kd)
T8 construct: DNA tag (qPCR read-out); purchased Ambit Biosciences (KINOMEscan service)

PKN1 = target: T9, PKN1 (Homo sapiens, UniProt Q16512); assay: KINOMEscan panel screen; format: binding; conditions: read-out: Percent Control(%)
T9 construct: purchased DiscoveRx KINOMEscan (Ambit Biosciences)

MV4-11 tumor xenograft = MV4-11 tumor xenograft model; format: in vivo
Procedure: Female 5- to 6-week-old NOD-SCID mice (Beijing HFK Bioscience) were housed in a sterile environment and fed a standard diet ad libitum. […] A 100- μl aliquot of the cell suspension was injected subcutaneously into the hind flank of each mouse to establish the xenograft model. […] The tumor volume was calculated using the following formula: volume = a × b^2/2 (a, long diameter; b, short diameter).
Paraffin-embedded tumors were subjected to immunostaining with Ki67 (Thermo Fisher), transferase-mediated dUTP nick-end labeling (TUNEL, Thermo Fisher). The representative images were taken on a LEICA DM 2500 microscope with a LEICA DFC425 C camera. Image acquisition software: LAS V3.7.
(a) MV4-11 cells (10^7 cells/mouse) were s.c. inoculated into NOD-SCID mice. […] The tumor volume and body weight were measured every 3 days during the treatment. The mean values ± SD are shown. […] Ki67 and TUNEL were detected with immunohistochemical. Representative images were shown. […] Tumors were harvested at the indicated time points, and the FLT3 signaling pathway was detected using western blot assays. The experiments were performed on three groups of mice. The results of the other two groups are given in Supplementary Data (Supplementary Fig. S8). […] The results shown in the histogram are the statistic data of three groups of mice. ns, not statistically significant, *P < 0.05, **P < 0.01. (e) The same harvested tumors were detected using real-time qPCR assays to test the expression of AXIN2 and NKD1 (the target genes of Wnt/β-catenin pathway). All results were normalized to the level of GAPDH (mean ± SEM from triplicate groups). ns, not statistically significant, *P < 0.05, **P < 0.01. (f) Kaplan-Meier plot of survival. […] The plasma concentrations were determined using liquid–liquid extraction followed by high-performance liquid chromatography (HPLC) with tandem mass spectrometric detection.

ADCK3 = target: T10, ADCK3 (Homo sapiens, UniProt Q8NI60); assay: KINOMEscan panel screen; format: binding; conditions: read-out: Percent Control(%)
T10 construct: purchased DiscoveRx KINOMEscan (Ambit Biosciences)

EPHB1 = target: T11, EPHB1 (Homo sapiens, UniProt P54762); assay: KINOMEscan panel screen; format: binding; conditions: read-out: Percent Control(%)
T11 construct: purchased DiscoveRx KINOMEscan (Ambit Biosciences)

VEGFR2 = target: T12, VEGFR2 (Homo sapiens, UniProt P35968); assay: KINOMEscan kinase binding assay (Kd)
T12 construct: DNA tag (qPCR read-out); purchased Ambit Biosciences (KINOMEscan service)

ERBB2 = ERBB2 (Homo sapiens, UniProt P04626); set-up: method as in earlier work; conditions: Table S1; cited from earlier work
Chain of ERBB2 (P04626 23-1255): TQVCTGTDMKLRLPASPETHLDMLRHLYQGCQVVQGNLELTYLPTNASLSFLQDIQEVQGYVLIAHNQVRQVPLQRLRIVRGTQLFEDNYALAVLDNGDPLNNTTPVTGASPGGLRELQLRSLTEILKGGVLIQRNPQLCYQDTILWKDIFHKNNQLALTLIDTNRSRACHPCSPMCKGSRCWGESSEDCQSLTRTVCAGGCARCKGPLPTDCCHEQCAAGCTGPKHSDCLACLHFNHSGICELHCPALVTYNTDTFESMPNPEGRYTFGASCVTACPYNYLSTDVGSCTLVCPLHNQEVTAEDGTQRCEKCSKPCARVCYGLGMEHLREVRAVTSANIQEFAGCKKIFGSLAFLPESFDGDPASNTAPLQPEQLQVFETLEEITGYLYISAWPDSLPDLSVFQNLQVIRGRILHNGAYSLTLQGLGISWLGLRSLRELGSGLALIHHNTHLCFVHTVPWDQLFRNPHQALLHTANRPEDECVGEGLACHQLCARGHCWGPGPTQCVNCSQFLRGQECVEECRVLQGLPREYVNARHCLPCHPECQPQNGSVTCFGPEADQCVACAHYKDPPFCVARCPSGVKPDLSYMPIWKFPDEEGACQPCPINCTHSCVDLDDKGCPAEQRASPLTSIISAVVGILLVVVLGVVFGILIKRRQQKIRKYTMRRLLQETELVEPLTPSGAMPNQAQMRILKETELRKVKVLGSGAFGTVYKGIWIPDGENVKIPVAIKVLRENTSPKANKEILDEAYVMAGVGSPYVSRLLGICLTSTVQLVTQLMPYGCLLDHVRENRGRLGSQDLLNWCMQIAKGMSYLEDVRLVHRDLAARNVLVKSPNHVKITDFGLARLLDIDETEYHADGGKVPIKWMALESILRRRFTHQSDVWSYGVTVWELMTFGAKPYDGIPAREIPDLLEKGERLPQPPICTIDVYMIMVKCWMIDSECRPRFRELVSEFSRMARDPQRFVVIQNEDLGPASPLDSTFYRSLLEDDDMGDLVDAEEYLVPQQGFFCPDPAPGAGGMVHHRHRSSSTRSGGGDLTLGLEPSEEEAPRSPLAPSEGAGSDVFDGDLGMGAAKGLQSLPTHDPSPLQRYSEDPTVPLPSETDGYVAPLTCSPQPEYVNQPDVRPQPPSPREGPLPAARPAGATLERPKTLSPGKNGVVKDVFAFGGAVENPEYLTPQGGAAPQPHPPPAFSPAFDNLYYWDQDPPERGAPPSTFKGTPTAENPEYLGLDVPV

T11 sequence (P54762 18-984): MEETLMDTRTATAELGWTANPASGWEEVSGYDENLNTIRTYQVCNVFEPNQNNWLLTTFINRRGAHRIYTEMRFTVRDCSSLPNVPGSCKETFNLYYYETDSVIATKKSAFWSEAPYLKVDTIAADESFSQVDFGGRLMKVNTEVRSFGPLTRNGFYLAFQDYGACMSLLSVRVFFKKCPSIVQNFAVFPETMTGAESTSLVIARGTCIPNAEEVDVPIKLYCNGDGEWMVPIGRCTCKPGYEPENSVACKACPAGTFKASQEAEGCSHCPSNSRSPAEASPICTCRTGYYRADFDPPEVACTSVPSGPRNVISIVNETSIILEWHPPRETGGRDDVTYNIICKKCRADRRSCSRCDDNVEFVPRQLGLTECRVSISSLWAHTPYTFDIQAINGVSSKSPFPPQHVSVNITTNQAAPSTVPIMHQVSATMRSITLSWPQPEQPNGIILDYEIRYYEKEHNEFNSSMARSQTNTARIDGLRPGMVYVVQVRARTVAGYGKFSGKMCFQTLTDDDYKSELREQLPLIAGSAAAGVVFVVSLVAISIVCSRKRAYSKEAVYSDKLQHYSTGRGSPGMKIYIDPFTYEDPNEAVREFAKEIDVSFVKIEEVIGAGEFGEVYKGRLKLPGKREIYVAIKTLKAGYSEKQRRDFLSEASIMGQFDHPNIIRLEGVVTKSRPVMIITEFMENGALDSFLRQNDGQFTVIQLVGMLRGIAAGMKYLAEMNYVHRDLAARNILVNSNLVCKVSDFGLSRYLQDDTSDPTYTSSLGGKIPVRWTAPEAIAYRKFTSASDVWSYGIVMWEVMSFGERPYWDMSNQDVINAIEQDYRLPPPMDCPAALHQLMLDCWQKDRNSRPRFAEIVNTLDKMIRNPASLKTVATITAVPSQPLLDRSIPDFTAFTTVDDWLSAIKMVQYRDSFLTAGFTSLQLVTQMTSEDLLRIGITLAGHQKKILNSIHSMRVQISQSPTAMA
T2 sequence (P07333 20-972): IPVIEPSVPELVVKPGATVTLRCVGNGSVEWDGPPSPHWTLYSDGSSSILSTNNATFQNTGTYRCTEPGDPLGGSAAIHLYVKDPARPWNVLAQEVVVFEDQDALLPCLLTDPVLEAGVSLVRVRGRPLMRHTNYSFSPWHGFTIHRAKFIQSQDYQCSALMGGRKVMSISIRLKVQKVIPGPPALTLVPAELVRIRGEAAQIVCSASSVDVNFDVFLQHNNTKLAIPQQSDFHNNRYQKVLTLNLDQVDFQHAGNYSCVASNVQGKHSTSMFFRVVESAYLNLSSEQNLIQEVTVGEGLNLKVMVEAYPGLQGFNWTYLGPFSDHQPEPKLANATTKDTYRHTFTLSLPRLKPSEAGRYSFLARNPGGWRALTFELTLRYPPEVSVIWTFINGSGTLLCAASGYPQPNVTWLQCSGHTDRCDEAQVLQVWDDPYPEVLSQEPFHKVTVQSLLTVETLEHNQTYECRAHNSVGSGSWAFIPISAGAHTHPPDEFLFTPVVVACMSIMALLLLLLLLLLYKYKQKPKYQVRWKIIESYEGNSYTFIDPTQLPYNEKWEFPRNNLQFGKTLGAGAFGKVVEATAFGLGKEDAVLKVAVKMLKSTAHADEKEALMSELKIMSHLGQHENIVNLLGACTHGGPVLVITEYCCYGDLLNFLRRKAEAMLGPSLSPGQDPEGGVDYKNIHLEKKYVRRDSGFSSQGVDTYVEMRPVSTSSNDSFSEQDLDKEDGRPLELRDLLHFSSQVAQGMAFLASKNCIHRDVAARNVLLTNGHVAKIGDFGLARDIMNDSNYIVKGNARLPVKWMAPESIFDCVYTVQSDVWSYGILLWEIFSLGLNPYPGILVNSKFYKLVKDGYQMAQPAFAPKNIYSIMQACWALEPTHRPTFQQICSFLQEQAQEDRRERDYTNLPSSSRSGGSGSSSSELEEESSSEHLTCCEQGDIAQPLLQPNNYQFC
T3 sequence (Q9NWZ3 whole entry): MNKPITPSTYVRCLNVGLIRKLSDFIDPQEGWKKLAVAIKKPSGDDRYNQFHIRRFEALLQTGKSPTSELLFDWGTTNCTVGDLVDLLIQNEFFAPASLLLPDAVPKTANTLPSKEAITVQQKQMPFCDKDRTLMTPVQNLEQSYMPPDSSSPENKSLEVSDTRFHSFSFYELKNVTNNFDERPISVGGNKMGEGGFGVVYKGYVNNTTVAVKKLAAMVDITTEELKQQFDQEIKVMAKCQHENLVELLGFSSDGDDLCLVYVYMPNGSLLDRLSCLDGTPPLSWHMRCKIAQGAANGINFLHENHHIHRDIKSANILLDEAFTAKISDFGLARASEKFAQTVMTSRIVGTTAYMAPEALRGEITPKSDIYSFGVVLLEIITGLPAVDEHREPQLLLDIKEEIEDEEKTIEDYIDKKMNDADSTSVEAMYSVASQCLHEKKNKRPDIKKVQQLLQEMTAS
T4 sequence (Q32MK0 whole entry): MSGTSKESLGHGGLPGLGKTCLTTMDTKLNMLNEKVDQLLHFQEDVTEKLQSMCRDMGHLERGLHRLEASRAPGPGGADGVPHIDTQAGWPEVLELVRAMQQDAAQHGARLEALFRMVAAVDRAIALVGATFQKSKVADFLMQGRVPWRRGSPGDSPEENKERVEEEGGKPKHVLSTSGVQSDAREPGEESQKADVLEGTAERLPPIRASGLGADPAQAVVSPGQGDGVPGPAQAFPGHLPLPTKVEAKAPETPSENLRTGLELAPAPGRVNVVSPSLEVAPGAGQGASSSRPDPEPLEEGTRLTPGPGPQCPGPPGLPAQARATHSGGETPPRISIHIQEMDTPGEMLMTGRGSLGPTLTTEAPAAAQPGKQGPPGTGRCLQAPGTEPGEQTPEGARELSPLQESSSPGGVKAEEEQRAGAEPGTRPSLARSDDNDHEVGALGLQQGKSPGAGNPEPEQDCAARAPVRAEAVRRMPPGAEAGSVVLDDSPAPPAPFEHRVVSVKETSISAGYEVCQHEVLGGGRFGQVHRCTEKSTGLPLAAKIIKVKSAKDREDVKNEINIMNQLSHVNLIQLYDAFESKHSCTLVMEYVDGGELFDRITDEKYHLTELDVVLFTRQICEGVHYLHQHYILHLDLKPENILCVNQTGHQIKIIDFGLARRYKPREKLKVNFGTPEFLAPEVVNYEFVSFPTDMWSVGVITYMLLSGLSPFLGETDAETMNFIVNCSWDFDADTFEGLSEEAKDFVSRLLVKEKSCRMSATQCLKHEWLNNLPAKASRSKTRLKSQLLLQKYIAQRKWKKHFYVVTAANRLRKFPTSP
T1 sequence (P19784 whole entry): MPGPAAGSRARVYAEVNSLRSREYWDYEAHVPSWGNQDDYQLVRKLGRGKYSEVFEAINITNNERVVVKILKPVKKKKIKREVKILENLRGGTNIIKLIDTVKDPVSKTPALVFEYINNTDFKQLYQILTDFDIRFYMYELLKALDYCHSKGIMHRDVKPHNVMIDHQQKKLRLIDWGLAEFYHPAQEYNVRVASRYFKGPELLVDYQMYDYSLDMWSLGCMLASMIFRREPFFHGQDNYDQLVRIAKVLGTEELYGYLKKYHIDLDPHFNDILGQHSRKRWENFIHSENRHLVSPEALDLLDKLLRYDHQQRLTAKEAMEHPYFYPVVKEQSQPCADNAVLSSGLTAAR

Compound: CC(C)(C)c1cc(NC(=O)Nc2ccc(Oc3ncnc4[nH]ncc34)c(F)c2)no1 [SKLB-677, 1-(4-(1H-pyrazolo[3,4-d]pyrimidin-4-yloxy)-3-fluorophenyl)-3-(5-tert-butylisoxazol-3-yl)urea]
- remaining binding at 10 µM (CSNK2A2): 71%
- remaining binding at 10 µM (CSF1R): 0.3%
- remaining binding at 10 µM (IRAK4): 100%
- remaining binding at 10 µM (MLCK): 58%
- remaining binding at 10 µM (DYRK1A): 80%
- remaining binding at 10 µM (GAK): 100%
- SP cells [1]: could almost eliminate SP cells
- SP cells (KG-1 SP cells): could almost eliminate SP cells
- remaining binding at 10 µM (AMPK-alpha2): 7.8%
- Kd (PAK4): > 10 µM
- remaining binding at 10 µM (PKN1): 82%
- tumor inhibition rate (MV4-11 tumor xenograft; 1 mg/kg/d orally once per day for 21 days): 66%
- tumor response (MV4-11 tumor xenograft; 3 mg/kg/d orally for 8 days): complete tumor regression
- toxicity in xenograft mice (MV4-11 tumor xenograft; 10 mg/kg/d or 3 mg/kg/d orally): without obvious toxicity
- tumor response (MV4-11 tumor xenograft; 10 mg/kg/d orally for 3 days): complete tumor regression
- Ki67-positive cells in tumors compared with control group (MV4-11 tumor xenograft; immunohistochemistry): evidently fewer
- percentage of TUNEL-positive cells in tumors compared with vehicle (MV4-11 tumor xenograft; immunohistochemistry): increased
- remaining binding at 10 µM (ADCK3): 100%
- remaining binding at 10 µM (EPHB1): 3.2%
- Kd (VEGFR2): 0.011 µM

Compound: O=C(Nc1ccc(Oc2ncnc3[nH]ncc23)cc1)Nc1ccc(Cl)c(C(F)(F)F)c1 [Compound 1, 1-(4-(1H-pyrazolo[3,4-d]pyrimidin-4-yloxy)phenyl)-3-(4-chloro-3-(trifluoromethyl)phenyl)urea]
- IC50 (ERBB2): > 10 µM
